Legend:
Assay type in all cases: cell-based, human
CLTA Off 1 = assay: High-throughput DNA sequencing of genome modifications; conditions: 500 ng Cas9 plasmid; for Mod. Freq (indels/total sequences), CLTA Off 1: Table 4
Protocol: (§1) We assayed these Cas9:sgRNA combinations in human cells for their ability to modify the three on-target loci as well as 11 known off-target genomic sites (Table 3)^4,5,10,13. Cells were treated with or without 1 μM 4-HT during transfection, and after 12 h the media was replaced with fresh media lacking 4-HT. […] Genomic DNA was isolated 60 h post-transfection and analyzed by high-throughput DNA sequencing
(§2) High-throughput DNA sequencing of genome modifications. HEK293-GFP stable cells were transfected with plasmids expressing Cas9 (500 ng) and sgRNA (125 ng) as described above. […] 4-HT (1 μM final), where appropriate, was added during transfection. 12 h after transfection, the media was replaced with full serum media without 4-HT. Genomic DNA was isolated and pooled from three biological replicates 60 h after transfection using a previously reported^11 protocol with a DNAdvance Kit (Agencourt). 150 ng or 200 ng of genomic DNA was used as a template to amplify by PCR the on-target and off-target genomic sites with flanking HTS primer pairs described previously^11. PCR products were purified using RapidTips (Diffinity Genomics) and quantified using the PicoGreen dsDNA Assay Kit (Invitrogen). Purified DNA was PCR amplified with primers containing sequencing adaptors, purified with the MinElute PCR Purification Kit (Qiagen) and AMPure XP PCR Purification (Agencourt). Samples were sequenced on a MiSeq high-throughput DNA sequencer (Illumina), and sequencing data was analyzed as described previously^4.
(§3) Sensitivity limit of off-target cleavage assays. We used paired end sequencing to identify indels caused by genomic on- and off-target cleavage. […] A 1 ng sample of human gDNA represents only ˜330 unique genomes, and thus only ˜330 unique copies of each genomic site are present. PCR amplification for each genomic target was performed on a total of 150 ng or 200 ng of input gDNA, which provides amplicons derived from at most 50,000 or 65,000 unique gDNA copies, respectively. Therefore, the high-throughput sequencing assay cannot detect rare genome modification events that occur at a frequency of less than approximately 1 in 50,000 (0.002%). When comparing between two conditions, such as wt Cas9 vs. intein-Cas9, this threshold becomes approximately 10 in 50,000 (0.02%) when using the Fisher exact test and a conservative multiple comparison correction (Bonferroni with 14 samples). See also Minoche, A. E., Dohm, J. C., & Himmelbauer, H. Evaluation of genomic high-throughput sequencing data generated on Illumina HiSeq and Genome Analyzer systems. Genome Biology 12, R112 (2011).

CLTA Off 2 = assay: as above; conditions: 500 ng Cas9 plasmid; for Mod. Freq (indels/total sequences), CLTA Off 2: Table 4
Protocol: as §1, §2, §3

CLTA Off 3 = assay: as above; conditions: 500 ng Cas9 plasmid; for Mod. Freq (indels/total sequences), CLTA Off 3: Table 4
Protocol: as §1, §2, §3

CLTA On = assay: as above; conditions: 500 ng Cas9 plasmid; for Mod. Freq (indels/total sequences), CLTA On: Table 4
Protocol: as §1, §2, §3

EMX Off 1 = assay: as above; conditions: 500 ng Cas9 plasmid; for Mod. Freq (indels/total sequences), EMX Off 1: Table 4
Protocol: as §1, §2, §3

EMX Off 2 = assay: as above; conditions: 500 ng Cas9 plasmid; for Mod. Freq (indels/total sequences), EMX Off 2: Table 4
Protocol: as §1, §2, §3

EMX Off 3 = assay: as above; conditions: 500 ng Cas9 plasmid; for Mod. Freq (indels/total sequences), EMX Off 3: Table 4
Protocol: as §1, §2, §3

EMX Off 4 = assay: as above; conditions: 500 ng Cas9 plasmid; for Mod. Freq (indels/total sequences), EMX Off 4: Table 4
Protocol: as §1, §2, §3

EMX On = assay: as above; conditions: 500 ng Cas9 plasmid; for Mod. Freq (indels/total sequences), EMX On: Table 4
Protocol: as §1, §2, §3

VEGF Off 1 = assay: as above; conditions: 500 ng Cas9 plasmid; for Mod. Freq (indels/total sequences), VEGF Off 1: Table 4
Protocol: as §1, §2, §3

VEGF Off 2 = assay: as above; conditions: 500 ng Cas9 plasmid; for Mod. Freq (indels/total sequences), VEGF Off 2: Table 4
Protocol: as §1, §2, §3

VEGF Off 3 = assay: as above; conditions: 500 ng Cas9 plasmid; for Mod. Freq (indels/total sequences), VEGF Off 3: Table 4
Protocol: as §1, §2, §3

VEGF Off 4 = assay: as above; conditions: 500 ng Cas9 plasmid; for Mod. Freq (indels/total sequences), VEGF Off 4: Table 4
Protocol: as §1, §2, §3

VEGF On = assay: as above; conditions: 500 ng Cas9 plasmid; for Mod. Freq (indels/total sequences), VEGF On: Table 4
Protocol: as §1, §2, §3

[1] = tested on: EMX, VEGF, and CLTA genomic loci; assay: High-throughput DNA sequencing of genome modifications, summary over on-target and off-target sites
Protocol: as §1, §2, §3

HEK293-GFP stable cells = assay: Western blot analysis of intein splicing; conditions: FIG. 6
Protocol: FIGS. 6A-6B. […] 12 h after transfection, cells were treated with or without 4-HT (1 μM). Cells were lysed and pooled from three technical replicates 4, 8, 12, or 24 h after 4-HT treatment. An anti-FLAG antibody (Sigma-Aldrich F1804) and an anti-mouse 800CW IRDye (LI-COR) were used to visualize the gel. Lanes 1 and 2 contain purified dCas9-VP64-3×FLAG protein and lysate from untransfected HEK293 cells, respectively.
Western blot analysis of intein splicing. HEK293-GFP stable cells were transfected with 500 ng Cas9 expression plasmid and 125 ng sgRNA expression plasmid. 12 h after transfection, the media was replaced with full serum media, with or without 4-HT (1 μM). Cells were lysed and pooled from three technical replicates 4, 8, 12, or 24 h after 4-HT treatment. Samples were run on a Bolt 4-12% Bis-Tris gel (Life Technologies). An anti-FLAG antibody (Sigma-Aldrich F1804) and an anti-mouse 800CW IRDye (LI-COR) were used to visualize the gel on an Odyssey IR imager.

Substance: intein(Ser219)-Cas9: Cas9 with 37R3-2 intein replacing Ser219 (SEQ ID NO: 30)
- Mod. Freq (indels/total sequences), CLTA Off 1 (CLTA Off 1; +4-HT (1 μM, 12 h)): 0.36%
- Mod Freq (indels/total sequences), CLTA Off 1 (CLTA Off 1; +4-HT, Table 6): 0.23%
- Mod. Freq (indels/total sequences), CLTA Off 1 (CLTA Off 1; −4-HT): 0.01%
- Mod. Freq (indels/total sequences), CLTA Off 2 (CLTA Off 2; +4-HT (1 μM, 12 h)): 0.00%
- Mod Freq (indels/total sequences), CLTA Off 2 (CLTA Off 2; +4-HT, Table 6): 0.00%
- Mod. Freq (indels/total sequences), CLTA Off 2 (CLTA Off 2; −4-HT): 0.00%
- Mod. Freq (indels/total sequences), CLTA Off 3 (CLTA Off 3; +4-HT (1 μM, 12 h)): 0.03%
- Mod Freq (indels/total sequences), CLTA Off 3 (CLTA Off 3; +4-HT, Table 6): 0.01%
- Mod. Freq (indels/total sequences), CLTA Off 3 (CLTA Off 3; −4-HT): 0.00%
- Mod. Freq (indels/total sequences), CLTA On (CLTA On; +4-HT (1 μM, 12 h)): 14.48%
- Mod Freq (indels/total sequences), CLTA On (CLTA On; +4-HT, Table 6): 9.13%
- Mod. Freq (indels/total sequences), CLTA On (CLTA On; −4-HT): 4.30%
- Mod. Freq (indels/total sequences), EMX Off 1 (EMX Off 1; +4-HT (1 μM, 12 h)): 0.42%
- Mod Freq (indels/total sequences), EMX Off 1 (EMX Off 1; +4-HT, Table 6): 0.20%
- Mod. Freq (indels/total sequences), EMX Off 1 (EMX Off 1; −4-HT): 0.01%
- Mod. Freq (indels/total sequences), EMX Off 2 (EMX Off 2; +4-HT (1 μM, 12 h)): 0.04%
- Mod Freq (indels/total sequences), EMX Off 2 (EMX Off 2; +4-HT, Table 6): 0.04%
- Mod. Freq (indels/total sequences), EMX Off 2 (EMX Off 2; −4-HT): 0.02%
- Mod. Freq (indels/total sequences), EMX Off 3 (EMX Off 3; +4-HT (1 μM, 12 h)): 0.77%
- Mod Freq (indels/total sequences), EMX Off 3 (EMX Off 3; +4-HT, Table 6): 0.54%
- Mod. Freq (indels/total sequences), EMX Off 3 (EMX Off 3; −4-HT): 0.05%
- Mod. Freq (indels/total sequences), EMX Off 4 (EMX Off 4; +4-HT (1 μM, 12 h)): 3.16%
- Mod Freq (indels/total sequences), EMX Off 4 (EMX Off 4; +4-HT, Table 6): 2.18%
- Mod. Freq (indels/total sequences), EMX Off 4 (EMX Off 4; −4-HT): 0.19%
- Mod. Freq (indels/total sequences), EMX On (EMX On; +4-HT (1 μM, 12 h)): 13.57%
- Mod Freq (indels/total sequences), EMX On (EMX On; +4-HT, Table 6): 8.25%
- Mod. Freq (indels/total sequences), EMX On (EMX On; −4-HT): 1.87%
- Mod. Freq (indels/total sequences), VEGF Off 1 (VEGF Off 1; +4-HT (1 μM, 12 h)): 8.50%
- Mod Freq (indels/total sequences), VEGF Off 1 (VEGF Off 1; +4-HT, Table 6): 4.61%
- Mod. Freq (indels/total sequences), VEGF Off 1 (VEGF Off 1; −4-HT): 0.43%
- Mod. Freq (indels/total sequences), VEGF Off 2 (VEGF Off 2; +4-HT (1 μM, 12 h)): 1.49%
- Mod Freq (indels/total sequences), VEGF Off 2 (VEGF Off 2; +4-HT, Table 6): 0.90%
- Mod. Freq (indels/total sequences), VEGF Off 2 (VEGF Off 2; −4-HT): 0.08%
- Mod. Freq (indels/total sequences), VEGF Off 3 (VEGF Off 3; +4-HT (1 μM, 12 h)): 0.37%
- Mod Freq (indels/total sequences), VEGF Off 3 (VEGF Off 3; +4-HT, Table 6): 0.16%
- Mod. Freq (indels/total sequences), VEGF Off 3 (VEGF Off 3; −4-HT): 0.04%
- Mod. Freq (indels/total sequences), VEGF Off 4 (VEGF Off 4; +4-HT (1 μM, 12 h)): 3.89%
- Mod Freq (indels/total sequences), VEGF Off 4 (VEGF Off 4; +4-HT, Table 6): 2.03%
- Mod. Freq (indels/total sequences), VEGF Off 4 (VEGF Off 4; −4-HT): 0.10%
- Mod. Freq (indels/total sequences), VEGF On (VEGF On; +4-HT (1 μM, 12 h)): 3.66%
- Mod Freq (indels/total sequences), VEGF On (VEGF On; +4-HT, Table 6): 3.17%
- Mod. Freq (indels/total sequences), VEGF On (VEGF On; −4-HT): 1.05%
- Activity compared to wild-type Cas9 ([1]; absence of 4-HT): much less active
- Activity compared to wild-type Cas9 ([1]; presence of 4-HT): slightly less active than wild-type Cas9
- Spliced product (Western blot) (HEK293-GFP stable cells; absence of 4-HT): no spliced product was detected
- Spliced product (Western blot) (HEK293-GFP stable cells; earliest assayed time point (4 h) following 4-HT treatment (1 μM)): presence of spliced product
